According to the supplement of paper PMC9512659:

Assays:
[1] = system: Mycobacterium tuberculosis Erdman (pMV306hsp+LuxG13); experiment: log2 fractional inhibitory concentration at 50% inhibition (log2 FIC); higher = more antagonistic
Description: (§1)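 DiaMOND pairwise dose responses of an equipotent two-drug mixture (1.5-fold, 10-dose series) against autoluminescent M. tuberculosis Erdman in 384-well plates. Growth inhibition was read by OD600 (luminescence for dormancy) in seven media at a constant and a terminal time point; metrics are means of at least biological duplicates. Einf and AUC25 higher = more potent; GRinf lower = more potent; log2FIC negative = synergy.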

[2] = system: Mycobacterium tuberculosis Erdman (pMV306hsp+LuxG13); experiment: log2 fractional inhibitory concentration at 90% inhibition (log2 FIC); higher = more antagonistic
Description: as §1

[3] = system: Mycobacterium tuberculosis Erdman (pMV306hsp+LuxG13); experiment: AUC25, normalised area under the dose-response curve up to IC25 (normalised AUC (unitless)); higher = more potent
Description: as §1

[4] = system: Mycobacterium tuberculosis Erdman (pMV306hsp+LuxG13); experiment: GRinf, normalised growth-rate inhibition at infinite dose (GR value (unitless, negative = killing)); higher = less potent
Description: as §1

[5] = system: Mycobacterium tuberculosis Erdman (pMV306hsp+LuxG13); experiment: Einf, effect of the drug pair at infinite dose (maximum growth inhibition) (fraction inhibition (0-1)); higher = more potent; extreme values may be limits of the assay
Description: as §1

COc1c(N2C[C@@H]3CCCN[C@@H]3C2)c(F)cc2c(=O)c(C(=O)O)cn(C3CC3)c12 [moxifloxacin] + CC(=O)NC[C@H]1CN(c2ccc(N3CCSCC3)c(F)c2)C(=O)O1 [sutezolid]
Conditions	AUC25, [3]	Einf, [5]	GRinf, [4]	log2 fractional inhibitory concentration, [1]	log2 fractional inhibitory concentration, [2]
growth medium: acidic pH 5.7, glycerol, time point: constant time point	0.153	0.884	-0.618	-0.766	–
growth medium: acidic pH 5.7, glycerol, time point: terminal time point	0.126	0.994	-0.27	-0.628	0.0336
growth medium: butyrate 5 mM, time point: constant time point	0.0856	0.921	0.0433	2.18	–
growth medium: butyrate 5 mM, time point: terminal time point	0.0636	0.96	0.0229	1.99	2.06
growth medium: cholesterol 0.05 mM, time point: constant time point	0.0609	0.744	-0.918	0.274	–
growth medium: cholesterol 0.2 mM (cholesterol-high), time point: constant time point	0.0941	1	-0.886	-0.358	-0.0409
growth medium: cholesterol 0.2 mM (cholesterol-high), time point: terminal time point	0.12	1	-0.872	-0.612	0.362
growth medium: standard 7H9 OADC glycerol, time point: constant = terminal time point (4.2 d)	0.0573	0.969	0.0204	-0.0683	-0.545
growth medium: valerate 0.1%, time point: constant time point	0.097	0.857	-0.0498	0.387	–
growth medium: valerate 0.1%, time point: terminal time point	0.0564	0.963	-0.0149	0.257	-0.156

growth medium: hypoxic dormancy (butyrate + nitrate), then recovery
Conditions	AUC25, [3]	Einf, [5]	GRinf, [4]	log2 fractional inhibitory concentration, [1]	log2 fractional inhibitory concentration, [2]
time point: constant time point	0.0806	0.95	0.218	0.0759	-1.18
time point: terminal time point	0.0478	0.902	0.508	0.726	0.502

CC[C@@H](CO)NCCN[C@@H](CC)CO [ethambutol] + CC(C)=CCC/C(C)=C/CNCCNC1C2CC3CC(C2)CC1C3 [SQ109]
Conditions	AUC25, [3]	Einf, [5]	GRinf, [4]	log2 fractional inhibitory concentration, [1]	log2 fractional inhibitory concentration, [2]
growth medium: butyrate 5 mM, time point: constant time point	0.0766	0.886	0.0457	0.614	–
growth medium: butyrate 5 mM, time point: terminal time point	0.0668	0.937	0.0593	0.497	0.586
growth medium: cholesterol 0.05 mM, time point: constant time point	0.0769	0.732	-0.435	0.488	–
growth medium: cholesterol 0.2 mM (cholesterol-high), time point: constant time point	0.0635	1	-0.949	0.679	0.489
growth medium: cholesterol 0.2 mM (cholesterol-high), time point: terminal time point	0.0641	1	-0.86	0.546	0.354
growth medium: standard 7H9 OADC glycerol, time point: constant = terminal time point (4.2 d)	0.0512	0.843	0.238	0.0946	–
growth medium: valerate 0.1%, time point: constant time point	0.0745	0.902	0.155	0.751	0.158
growth medium: valerate 0.1%, time point: terminal time point	0.0778	0.9	0.175	0.656	0.34

growth medium: hypoxic dormancy (butyrate + nitrate), then recovery
Conditions	AUC25, [3]	Einf, [5]	GRinf, [4]	log2 fractional inhibitory concentration, [1]	log2 fractional inhibitory concentration, [2]
time point: constant time point	0.0928	0.988	-0.333	-0.601	-0.745
time point: terminal time point	0.0578	0.96	0.144	0.71	–

NNC(=O)c1ccncc1 [isoniazid] + CC(=O)NC[C@H]1CN(c2ccc(N3CCSCC3)c(F)c2)C(=O)O1 [sutezolid]
Conditions	AUC25, [3]	Einf, [5]	GRinf, [4]	log2 fractional inhibitory concentration, [1]	log2 fractional inhibitory concentration, [2]
growth medium: acidic pH 5.7, glycerol, time point: constant time point	0.0914	0.846	-0.123	0.123	–
growth medium: acidic pH 5.7, glycerol, time point: terminal time point	0.0816	0.972	-0.174	0.103	-0.00954
growth medium: butyrate 5 mM, time point: constant time point	0.0778	0.901	0.0944	0.357	–
growth medium: butyrate 5 mM, time point: terminal time point	0.0468	0.944	0.104	0.264	0.0935
growth medium: cholesterol 0.05 mM, time point: constant time point	0.026	0.988	-0.536	0.559	-0.209
growth medium: cholesterol 0.05 mM, time point: terminal time point	0.113	1	-1	0.493	0.0381
growth medium: cholesterol 0.2 mM (cholesterol-high), time point: constant time point	0.0844	0.994	-0.83	0.0991	0.448
growth medium: cholesterol 0.2 mM (cholesterol-high), time point: terminal time point	0.119	1	-0.942	-0.302	0.592
growth medium: standard 7H9 OADC glycerol, time point: constant = terminal time point (4.2 d)	0.0428	0.956	0.0933	-0.00832	-0.586
growth medium: valerate 0.1%, time point: constant time point	0.0744	0.872	-0.342	1.2	–
growth medium: valerate 0.1%, time point: terminal time point	0.0761	0.982	-0.0769	0.633	0.724

growth medium: hypoxic dormancy (butyrate + nitrate), then recovery
Conditions	AUC25, [3]	Einf, [5]	GRinf, [4]	log2 fractional inhibitory concentration, [1]	log2 fractional inhibitory concentration, [2]
time point: constant time point	0.0513	0.987	0.3	0.243	-0.281
time point: terminal time point	0.0273	0.958	0.448	0.741	-0.485
